Converted amounts (≈) assume the structure as drawn. “And” between values parts separate entries of the source, which are not always exact repeats. Equal values may be shown once.
How the values were obtained:
Assay in all cases: ≥ marks a high value that may be exact or a test limit, other limits are often not marked, values filed in µg/mL are converted to µM
[1] = test system: Pseudomonas aeruginosa
[2] = test system: Escherichia coli ATCC 25922
[3] = test system: Staphylococcus aureus ATCC 25923
[4] = test system: Escherichia coli
[5] = test system: Staphylococcus aureus

| MIC [2] | Structure (SMILES) | also measured |
| --- | --- | --- |
|  | NC(=O)[C@H](CCCN=C(N)N)NC(=O)[C@H](CCCN=C(N)N)NC(=O)[C@H](Cc1c[nH]c2ccccc12)NC(=O)[C@H](Cc1c[nH]c2ccccc12)NC(=O)[C@H](CCCN=C(N)N)NC(=O)[C@H](CCCN=C(N)N)NC(=O)[C@H](Cc1c[nH]c2ccccc12)NC(=O)[C@H](Cc1c[nH]c2ccccc12)NC(=O)[C@H](Cc1c[nH]c2ccccc12)NC(=O)[C@H](CCCN=C(N)N)NC(=O)[C@H](CCCN=C(N)N)NC(=O)[C@@H](N)CCCN=C(N)N [RRRWWWRRWWRR] | MIC [1]: 1.96 µM (≈ 4 µg/mL) |
| 6.73 µM and 13.5 µM | CC(C)C[C@H](NC(=O)[C@H](CC(C)C)NC(=O)[C@H](CCCCN)NC(=O)[C@H](CCCCN)NC(=O)[C@H](CC(C)C)NC(=O)[C@H](Cc1c[nH]c2ccccc12)NC(=O)[C@H](CCCCN)NC(=O)[C@H](CC(C)C)NC(=O)[C@@H](N)Cc1ccccc1)C(N)=O [FLKWLKKLL] |  |
|  | CSCC[C@H](NC(=O)[C@@H](NC(=O)[C@H](CCCN=C(N)N)NC(=O)[C@H](Cc1ccccc1)NC(=O)[C@H](C)NC(=O)[C@H](C)NC(=O)[C@H](CCCCN)NC(=O)[C@H](CC(C)C)NC(=O)[C@H](Cc1c[nH]c2ccccc12)NC(=O)[C@H](C)NC(=O)[C@@H]1CCCN1C(=O)[C@@H](N)CCCN=C(N)N)C(C)C)C(=O)N[C@@H](CCCN=C(N)N)C(=O)N[C@@H](C)C(=O)N[C@@H](CS)C(=O)N[C@H](C(N)=O)C(C)C [RPAWLKAAFRVMRACV] | MIC [1]: 4.27 µM (≈ 8 µg/mL) |
| 64.1 µM (≈ 64 µg/mL) | CC(C)[C@H](NC(=O)[C@H](CC(N)=O)NC(=O)[C@H](CCCCN)NC(=O)[C@H](CCCN=C(N)N)NC(=O)[C@@H]1CCCN1C(=O)[C@H](C)N)C(=O)N[C@@H](CCCCN)C(=O)N[C@@H](Cc1c[nH]c2ccccc12)C(=O)O [APRKNVKW] |  |
| > 38.7 µM | CC[C@H](C)[C@H](NC(=O)[C@H](CCCN=C(N)N)NC(=O)[C@H](CCCCN)NC(=O)[C@H](CC(C)C)NC(=O)[C@H](C)NC(=O)CN)C(=O)N[C@@H](CCCCN)C(=O)N[C@H](C(=O)N[C@@H](CC(C)C)C(=O)N[C@@H](CC(C)C)C(N)=O)[C@@H](C)O [GALKRIKTLL] | MIC [3]: > 38.7 µM |
| 12.5 µM (≈ 28 µg/mL) | CC[C@H](C)[C@H](NC(=O)[C@H](C)NC(=O)CNC(=O)[C@H](C)NC(=O)[C@H](CCCCN)NC(=O)[C@H](CO)NC(=O)[C@H](C)NC(=O)[C@H](CCSC)NC(=O)CN)C(=O)N[C@@H](C)C(=O)NCC(=O)N[C@@H](CCCCN)C(=O)N[C@H](C(=O)N[C@@H](C)C(=O)N[C@@H](CCCCN)C(=O)N[C@H](C(=O)N[C@@H](C)C(=O)N[C@@H](Cc1c[nH]c2ccccc12)C(=O)N[C@@H](CCCCN)C(=O)N[C@@H](C)C(=O)N[C@@H](CC(C)C)C(=O)NCC(=O)NCC(=O)N[C@@H](CO)C(N)=O)C(C)C)[C@@H](C)CC [GMASKAGAIAGKIAKVAWKALGGS] |  |
| 16 µM (≈ 16 µg/mL) | CC(C)C[C@H](NC(=O)[C@H](CCC(N)=O)NC(=O)[C@H](CCCCN)NC(=O)[C@H](CCCCN)NC(=O)[C@@H]1CCCN1C(=O)[C@H](C)N)C(=O)N[C@@H](CCCCN)C(=O)N[C@@H](Cc1c[nH]c2ccccc12)C(=O)O [APKKQLKW] |  |
| 8 µM (≈ 16.5 µg/mL) | CC(C)C[C@H](NC(=O)[C@H](Cc1ccccc1)NC(=O)[C@@H]1CCCN1C(=O)[C@H](Cc1c[nH]c2ccccc12)NC(=O)[C@H](Cc1c[nH]c2ccccc12)NC(=O)[C@H](Cc1c[nH]c2ccccc12)NC(=O)[C@@H]1CCCN1C(=O)[C@H](Cc1ccccc1)NC(=O)[C@H](CCCN=C(N)N)NC(=O)[C@H](CCCN=C(N)N)NC(=O)[C@@H](NC(=O)[C@@H](NC(=O)CN)[C@@H](C)O)C(C)C)C(=O)N[C@@H](CCCN=C(N)N)C(=O)N[C@@H](CCCN=C(N)N)C(=O)O [GTVRRFPWWWPFLRR] |  |
| 30.6 µM (≈ 34 µg/mL) | CC[C@H](C)[C@H](NC(=O)[C@H](CC(N)=O)NC(=O)[C@H](CCCCN)NC(=O)[C@H](CC(C)C)NC(=O)[C@H](CC(C)C)NC(=O)CN)C(=O)N[C@@H](CCCCN)C(=O)N[C@H](C(=O)N[C@@H](CC(C)C)C(=O)N[C@@H](CC(C)C)C(N)=O)[C@@H](C)O [GLLKNIKTLL] | MIC [3]: 62 µM (≈ 68.9 µg/mL) |
| 14.6 µM (≈ 16 µg/mL) | CC[C@H](C)[C@H](NC(=O)[C@H](CCCN=C(N)N)NC(=O)[C@H](C)NC(=O)[C@H](CC(C)C)NC(=O)[C@H](CC(C)C)NC(=O)CN)C(=O)N[C@@H](CCCCN)C(=O)N[C@H](C(=O)N[C@@H](CC(C)C)C(=O)N[C@@H](CC(C)C)C(N)=O)[C@@H](C)O [GLLARIKTLL] | MIC [3]: 25.5 µM (≈ 28 µg/mL) |
| 130 µM (≈ 128 µg/mL) | CC(C)[C@H](NC(=O)[C@H](CC(N)=O)NC(=O)[C@H](CCCCN)NC(=O)[C@H](CCCN=C(N)N)NC(=O)[C@@H]1CCCN1C(=O)[C@H](C)N)C(=O)N[C@@H](CCCN=C(N)N)C(=O)N[C@@H](Cc1ccccc1)C(=O)O [APRKNVRF] |  |
| 120 µM (≈ 200 µg/mL) | C[C@@H](O)[C@H](NC(=O)[C@H](CO)NC(=O)[C@H](CO)NC(=O)[C@@H](N)CCCCN)C(=O)N[C@@H](CCCN=C(N)N)C(=O)NCC(=O)N[C@@H](CCCN=C(N)N)C(=O)N[C@@H](CCCCN)C(=O)N[C@@H](CO)C(=O)N[C@@H](CO)C(=O)N[C@@H](CCCN=C(N)N)C(=O)N[C@@H](CCCN=C(N)N)C(=O)N[C@@H](CCCCN)C(=O)N[C@@H](CCCCN)C(=O)O [KSSTRGRKSSRRKK] | MIC [3]: > 308 µM |
| 2 µM (≈ 6.36 µg/mL) | CC[C@H](C)[C@H](NC(=O)CN)C(=O)N[C@@H](Cc1ccccc1)C(=O)N[C@@H](CC(C)C)C(=O)N[C@@H](CC(=O)O)C(=O)N[C@@H](CCCCN)C(=O)N[C@@H](CC(C)C)C(=O)N[C@@H](CCCCN)C(=O)N[C@@H](CC(N)=O)C(=O)N[C@@H](Cc1ccccc1)C(=O)N[C@@H](C)C(=O)N[C@@H](CCCCN)C(=O)NCC(=O)N[C@H](C(=O)N[C@@H](C)C(=O)N[C@@H](CCC(N)=O)C(=O)N[C@@H](CO)C(=O)N[C@@H](CC(C)C)C(=O)N[C@@H](CC(C)C)C(=O)N[C@@H](CC(N)=O)C(=O)N[C@@H](CCCCN)C(=O)N[C@@H](C)C(=O)N[C@@H](CO)C(=O)N[C@H]1CSSC[C@@H](C(=O)O)NC(=O)[C@H](CCC(N)=O)NC(=O)CNC(=O)[C@H](CO)NC(=O)[C@H](CC(C)C)NC(=O)[C@H](CCCCN)NC1=O)C(C)C [GIFLDKLKNFAKGVAQSLLNKASCKLSGQC] |  |
| 6.3 µM (≈ 13.8 µg/mL) | CC[C@H](C)[C@H](NC(=O)[C@H](C)NC(=O)CNC(=O)[C@H](C)NC(=O)[C@H](CCCCN)NC(=O)[C@H](CO)NC(=O)[C@H](C)NC(=O)[C@H](CCSC)NC(=O)CN)C(=O)N[C@@H](C)C(=O)NCC(=O)N[C@@H](CCCCN)C(=O)N[C@H](C(=O)N[C@@H](C)C(=O)N[C@@H](CCCCN)C(=O)N[C@H](C(=O)N[C@@H](C)C(=O)N[C@@H](CC(C)C)C(=O)N[C@@H](CCCCN)C(=O)N[C@@H](C)C(=O)N[C@@H](CC(C)C)C(=O)NCC(=O)NCC(=O)N[C@@H](CS)C(N)=O)C(C)C)[C@@H](C)CC [GMASKAGAIAGKIAKVALKALGGC] |  |
|  | CC(C)[C@@H]1NC(=O)[C@@H]2CSSC[C@H](NC(=O)[C@H](Cc3ccc(O)cc3)NC(=O)[C@@H](N)CSSC[C@@H](C(=O)O)NC1=O)C(=O)N[C@@H](CCCN=C(N)N)C(=O)N[C@@H](CCCN=C(N)N)C(=O)N[C@@H](CCCN=C(N)N)C(=O)N[C@@H](Cc1ccccc1)C(=O)N2 [CYCRRRFCVC] | MIC [4]: 10.8 µM (≈ 14.1 µg/mL) |
|  | CC[C@@H](C)[C@H](N=C(O)[C@H](CCCCN)N=C(O)[C@H](CS)N=C(O)[C@H](CCCCN)N=C(O)[C@H](CC(C)C)N=C(O)CN=C(O)C(CCC(=O)O)N=C(O)[C@H](CC(C)C)N=C(O)[C@H](CCCCN)N=C(O)CN=C(O)[C@H](C)N=C(O)[C@H](N=C(O)[C@H](CC(=O)O)N=C(O)[C@H](CCCCN)N=C(O)[C@H](C)N=C(O)[C@H](C)N=C(O)CN=C(O)C(CCCCN)N=C(O)C(CC(C)C)N=C(O)[C@H](N=C(O)C(CC(=O)O)N=C(O)[C@H](CC(C)C)N=C(O)[C@H](Cc1ccccc1)N=C(O)C(CC(C)C)N=C(O)CN)C(C)O)C(C)C)C(O)=N[C@H](C(O)=NCC(O)=N[C@H](CS)C(O)=N[C@H](CCCCN)C(O)=N[C@H](CC(C)C)C(=O)N1CCCC1C(=O)O)[C@@H](C)O (stereo partly specified) [GLFLDTLKGAAKDVAGKLEGLKCKITGCKLP] | MIC [5]: 60 µM (≈ 191 µg/mL) |
| 200 µM (≈ 234 µg/mL) | CC[C@H](C)[C@H](NC(=O)[C@H](CCCN=C(N)N)NC(=O)[C@H](CCCCN)NC(=O)[C@H](CC(C)C)NC(=O)[C@H](CCSC)NC(=O)CN)C(=O)N[C@@H](CCCCN)C(=O)N[C@H](C(=O)N[C@@H](CC(C)C)C(=O)N[C@@H](CC(C)C)C(N)=O)[C@@H](C)O [GMLKRIKTLL] |  |
| 1.79 µM (≈ 2 µg/mL) | CC(C)C[C@H](NC(=O)[C@H](CCC(N)=O)NC(=O)[C@H](CCCCN)NC(=O)[C@H](CCCN=C(N)N)NC(=O)[C@H](Cc1ccccc1)NC(=O)[C@@H](N)CC(C)C)C(=O)N[C@@H](CCCCN)C(=O)N[C@@H](Cc1c[nH]c2ccccc12)C(=O)O [LFRKQLKW] |  |
|  | CC[C@H](C)[C@H](NC(=O)[C@H](Cc1ccc(O)cc1)NC(=O)[C@H](Cc1c[nH]c2ccccc12)NC(=O)[C@H](CC(C)C)NC(=O)[C@H](Cc1c[nH]c2ccccc12)NC(=O)[C@H](CCCN=C(N)N)NC(=O)[C@@H](NC(=O)[C@@H](NC(=O)[C@H](CCCN=C(N)N)NC(=O)[C@H](Cc1ccccc1)NC(=O)[C@H](Cc1c[nH]c2ccccc12)NC(=O)[C@H](CCCN=C(N)N)NC(=O)[C@H](Cc1c[nH]c2ccccc12)NC(=O)[C@H](CC(C)C)NC(=O)[C@H](CCCN=C(N)N)NC(=O)[C@H](C)NC(=O)[C@H](Cc1c[nH]c2ccccc12)NC(=O)[C@@H](N)CCCCN)[C@@H](C)CC)[C@@H](C)O)C(=O)N[C@@H](CCCCN)C(N)=O [KWARLWRWFRITRWLWYIK] | MIC [5]: > 36.2 µM; MIC [4]: > 36.2 µM |
| 22.5 µM and 63.6 µM | CC[C@H](C)[C@H](NC(=O)[C@H](CCCCN)NC(=O)[C@H](CC(C)C)NC(=O)[C@@H](NC(=O)[C@H](CCCCN)NC(=O)[C@H](C)N)C(C)C)C(=O)N[C@@H](CO)C(=O)N[C@@H](CCCN=C(N)N)C(=O)N[C@@H](CCCN=C(N)N)C(=O)N[C@@H](C)C(=O)N[C@@H](Cc1ccccc1)C(=O)N[C@@H](CCCN=C(N)N)C(=O)N[C@@H](CCCCN)C(N)=O [AKVLKISRRAFRK] |  |
|  | CC[C@H](C)[C@H](NC(=O)[C@H](C)NC(=O)[C@H](CO)NC(=O)[C@@H](NC(=O)[C@@H](N)Cc1ccccc1)[C@@H](C)CC)C(=O)N[C@@H](C)C(=O)N[C@@H](CO)C(=O)N[C@@H](Cc1ccccc1)C(=O)N[C@@H](CC(C)C)C(=O)NCC(=O)N[C@@H](CCCCN)C(=O)N[C@@H](Cc1ccccc1)C(=O)N[C@@H](CC(C)C)C(=O)O [FISAIASFLGKFL] | MIC [5]: 130 µM (≈ 184 µg/mL) |

Reference: DBAASP
